Measured values as given in patent US10597388B2, “Pyridazinone herbicides” (FMC CORPORATION, priority 2014, dated 2020).

Columns and labels:
Type in all cases: in vivo
[1] = system: pigweed (Amaranthus retroflexus); test: Test C greenhouse herbicide test, pre- and postemergence
How it was run: (§1)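 Seeds sown in loam–sand blend treated preemergence; plants in peat-based medium sprayed postemergence at 2–18 cm (1- to 4-leaf stage); chemicals in non-phytotoxic solvent with surfactant. Greenhouse 13–15 d, then visual rating versus controls on 0–100 scale (0 no effect, 100 complete control).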

[2] = system: morningglory (Ipomoea coccinea); test: as above
How it was run: as §1

[3] = system: blackgrass (Alopecurus myosuroides); test: as above
How it was run: as §1

corn (Zea mays) = test: as above
How it was run: as §1

[4] = system: ryegrass, Italian (Italian ryegrass, Lolium multiflorum); test: as above
How it was run: as §1

[5] = system: velvetleaf (Abutilon theophrasti); test: as above
How it was run: as §1

[6] = system: pigweed (Amaranthus retroflexus); test: Test A greenhouse herbicide test, pre- and postemergence
How it was run: (§2)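 Seeds in loam–sand blend received a preemergence directed soil spray; plants at 2–10 cm, one- to two-leaf stage, received postemergence sprays. Compounds in a non-phytotoxic solvent with surfactant. After about 10 d in a greenhouse, injury rated visually versus untreated controls on a 0–100 scale (100 = complete control).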

kochia (Kochia scoparia) = test: as above
How it was run: as §2

[7] = system: wheat (Triticum aestivum); test: as above; settings: Postemergence
How it was run: as §2

[8] = system: ragweed (common ragweed, Ambrosia elatior); test: as above
How it was run: as §2

[9] = system: foxtail, giant (giant foxtail, Setaria faberii); test: as above
How it was run: as §2

[10] = Postemergence, 125 g ai/ha, scale 0 to 100, 0 is no effect, 100 is complete control
[11] = Postemergence, 250 g ai/ha, scale 0 to 100, 0 no effect, 100 complete control, 13 to 15 d
[12] = Preemergence, 31 g ai/ha, scale 0 to 100, 0 is no effect, 100 is complete control
[13] = Preemergence, 62 g ai/ha, scale 0 to 100, 0 is no effect, 100 is complete control
[14] = Preemergence, 125 g ai/ha, scale 0 to 100, 0 is no effect, 100 is complete control
[15] = Preemergence, 250 g ai/ha, scale 0 to 100, 0 no effect, 100 complete control
[16] = postemergence, 62 g ai/ha, scale 0 to 100, 0 no effect, 100 complete control
[17] = Postemergence, 31 g ai/ha, 0 to 100 scale (0 no effect, 100 complete control)
[18] = Postemergence, 125 g ai/ha, 0 to 100 scale where 0 is no effect and 100 is complete control
[19] = Postemergence, 500 g ai/ha, visual rating after approx. 10 d, 0 to 100 scale (0 no effect, 100 complete control)
[20] = Preemergence, 125 g ai/ha, 0 to 100 scale where 0 is no effect and 100 is complete control
[21] = Preemergence, 500 g ai/ha, 0 to 100 scale where 0 is no effect and 100 is complete control
[22] = 125 g ai/ha, 0 to 100 scale where 0 is no effect and 100 is complete control
[23] = 500 g ai/ha, visual rating after approx. 10 d, 0 to 100 scale (0 no effect, 100 complete control)
[24] = Postemergence, 31 g ai/ha, scale 0 to 100 (0 no effect, 100 complete control)

CC(=O)Oc1c(C)nn(C)c(=O)c1-c1c(C)cc(C)c2ccccc12 [Compound 99]
85: Plant response rating, Morningglory [2, 13] | Velvetleaf plant response rating [5, 16]
80: Plant response rating, Morningglory [2, 12] | Ragweed plant response rating [8, 20] | Plant response rating, Ragweed [8, 21] | Plant response rating, Foxtail, Giant [9, 21]
75: Pigweed plant response rating [1, 16] | Plant response rating, Velvetleaf [5, 13]
40: Plant response rating, Foxtail, Giant [9, 18]
60: Plant response rating, Velvetleaf [5, 12]
50: Plant response rating, Blackgrass [3, 10] | Plant response rating, Blackgrass [3, 12] | Foxtail, Giant plant response rating [9, 20]
30: Blackgrass plant response rating [3, 16] | Corn plant response rating (corn (Zea mays); [15]) | Plant response rating, Kochia (kochia (Kochia scoparia); [18]) | Plant response rating, Wheat [7, 23]
100: Plant response rating, Pigweed [1, 13] | Plant response rating, Pigweed [1, 14] | Pigweed plant response rating [1, 15] | Plant response rating, Morningglory [2, 10] | Plant response rating, Morningglory [2, 11] | Plant response rating, Ryegrass, Italian [4, 14] | Ryegrass, Italian plant response rating [4, 15] | Plant response rating, Velvetleaf [5, 11] | Pigweed plant response rating [6, 20] | Plant response rating, Pigweed [6, 21] | Plant response rating, Ragweed [8, 18] | Plant response rating, Ragweed [8, 19]
90: Plant response rating, Morningglory [2, 14] | Plant response rating, Blackgrass [3, 14] | Blackgrass plant response rating [3, 15] | Plant response rating, Ryegrass, Italian [4, 12] | Plant response rating, Ryegrass, Italian [4, 13] | Ryegrass, Italian plant response rating [4, 16] | Plant response rating, Velvetleaf [5, 14] | Plant response rating, Pigweed [6, 19] | Plant response rating, Foxtail, Giant [9, 19]
95: Plant response rating, Pigweed [1, 11] | Plant response rating, Pigweed [1, 12] | Morningglory plant response rating [2, 15] | Morningglory plant response rating [2, 16] | Plant response rating, Ryegrass, Italian [4, 10] | Plant response rating, Ryegrass, Italian [4, 11] | Velvetleaf plant response rating [5, 15]
98: Plant response rating, Pigweed [1, 10] | Plant response rating, Velvetleaf [5, 10]
70: Plant response rating, Blackgrass [3, 13] | Plant response rating, Pigweed [6, 18] | Plant response rating, Kochia (kochia (Kochia scoparia); [19]) | Plant response rating, Kochia (kochia (Kochia scoparia); [21])
10: Plant response rating, Corn (corn (Zea mays); [10]) | Plant response rating, Corn (corn (Zea mays); [11]) | Plant response rating, Corn (corn (Zea mays); [14])
0: Corn plant response rating (corn (Zea mays); [17])
65: Plant response rating, Blackgrass [3, 11]
20: Blackgrass plant response rating [3, 17] | Plant response rating, Corn (corn (Zea mays); [13]) | Kochia plant response rating (kochia (Kochia scoparia); [20]) | Plant response rating, Wheat [7, 22]
5: Plant response rating, Corn (corn (Zea mays); [12]) | Corn plant response rating (corn (Zea mays); [16])

Cc1ccc2ccccc2c1-c1c(O)c(C(F)(F)F)nn(C)c1=O [Compound 102]
40: Plant response rating, Kochia (kochia (Kochia scoparia); [19])
75: Plant response rating, Pigweed [1, 24] | Plant response rating, Pigweed [1, 12] | Plant response rating, Morningglory [2, 13]
70: Blackgrass plant response rating [3, 15] | Ryegrass, Italian plant response rating [4, 15] | Plant response rating, Foxtail, Giant [9, 18] | Foxtail, Giant plant response rating [9, 20]
50: Plant response rating, Blackgrass [3, 13] | Plant response rating, Ryegrass, Italian [4, 14]
15: Plant response rating, Ryegrass, Italian [4, 12]
100: Plant response rating, Pigweed [1, 11] | Pigweed plant response rating [1, 15] | Plant response rating, Morningglory [2, 24] | Plant response rating, Morningglory [2, 10] | Plant response rating, Morningglory [2, 11] | Plant response rating, Velvetleaf [5, 10] | Plant response rating, Velvetleaf [5, 11] | Velvetleaf plant response rating [5, 15] | Plant response rating, Pigweed [6, 21] | Plant response rating, Ragweed [8, 18] | Plant response rating, Ragweed [8, 19]
98: Plant response rating, Pigweed [1, 14] | Morningglory plant response rating [2, 15]
95: Plant response rating, Pigweed [1, 10]
25: Plant response rating, Ryegrass, Italian [4, 10] | Plant response rating, Ryegrass, Italian [4, 13]
30: Corn plant response rating (corn (Zea mays); [15]) | Plant response rating, Ryegrass, Italian [4, 11] | Plant response rating, Velvetleaf [5, 24] | Plant response rating, Kochia (kochia (Kochia scoparia); [21])
80: Pigweed plant response rating [6, 20]
90: Plant response rating, Pigweed [6, 18] | Plant response rating, Pigweed [6, 19] | Ragweed plant response rating [8, 20] | Plant response rating, Ragweed [8, 21] | Plant response rating, Foxtail, Giant [9, 19] | Plant response rating, Foxtail, Giant [9, 21]
65: Plant response rating, Velvetleaf [5, 12]
45: Plant response rating, Morningglory [2, 12] | Plant response rating, Blackgrass [3, 14]
5: Plant response rating, Blackgrass [3, 10] | Blackgrass plant response rating [3, 16] | Plant response rating, Corn (corn (Zea mays); [12])
20: Plant response rating, Corn (corn (Zea mays); [14]) | Plant response rating, Kochia (kochia (Kochia scoparia); [18]) | Plant response rating, Wheat [7, 22] | Plant response rating, Wheat [7, 23]
0: Plant response rating, Blackgrass [3, 24] | Plant response rating, Blackgrass [3, 12] | Plant response rating, Corn (corn (Zea mays); [24]) | Corn plant response rating (corn (Zea mays); [16]) | Plant response rating, Ryegrass, Italian [4, 24]
10: Plant response rating, Blackgrass [3, 11] | Plant response rating, Corn (corn (Zea mays); [10]) | Plant response rating, Corn (corn (Zea mays); [11]) | Plant response rating, Corn (corn (Zea mays); [13]) | Kochia plant response rating (kochia (Kochia scoparia); [20])
85: Plant response rating, Pigweed [1, 13] | Plant response rating, Morningglory [2, 14] | Plant response rating, Velvetleaf [5, 13] | Plant response rating, Velvetleaf [5, 14]
